From patent US7527935B2, “G-protein coupled receptor having eicosanoid as ligand and gene thereof” (Mitsubishi Tanabe Pharma Corporation, priority 2002, dated 2009) come the findings set out here.

In one test the test system is neutrophils. Description: Migration test of neutrophils. The note with it: purified human neutrophils; 2 hours. Format: cell-based. On the procedure:
Neutrophils were purified as follows. Blood was collected (50 ml) from healthy male adult volunteers. Then, 12.5 ml each of the collected blood was poured into a 50 ml tube containing 23 ml physiological saline, and, the total volume was adjusted to 40 ml with physiological saline. To a bottom of the tube, Percoll solution (specific gravity: 1.079±0.004, 10 ml) was gently added, and the mixture was centrifuged at 430×g, for 20 minutes at room temperature, without deceleration or acceleration.
After washing the eosinophils and neutrophils purified in the above sections, the cells were suspended in RPMI1640 supplemented with 0.1% BSA (not containing phenol red) which contains 3 μM Calcein-AM (Dojindo laboratories, fluorescence reagent), so that the cell count became 1×10^6 cells/ml. The suspension was incubated at 37° C. for 30 minutes. The cells were washed twice with the same culture medium, and suspended in the same medium so that the cell count became 1×10^6 cells/ml. […]
(§1) After the reaction, the chambers were removed, and to the lower chamber was added 66 μl of 10× lysis buffer (5% Triton X-100 dissolved in PBS, 10% ethanol). […] 200 μl of the cell lysate was transferred to 96 well black plate (237105, Nunc), and fluorescence intensities were measured using a fluorometer (ARVO™ SX, Wallac) with an excitation wavelength of 485 nm and a fluorescence wavelength of 535 nm.

The next test concerns eosinophils. Description: Migration test of eosinophils. Type of test: cell-based. The note with it: purified human eosinophils; 1.5 hours. The protocol:
Blood was collected (50 ml) from healthy male adult volunteers, and from the collected peripheral blood, eosinophils were purified as follows.
After washing the eosinophils and neutrophils purified in the above sections, the cells were suspended in RPMI1640 supplemented with 0.1% BSA (not containing phenol red) which contains 3 μM Calcein-AM (Dojindo laboratories, fluorescence reagent), so that the cell count became 1×10^6 cells/ml. The suspension was incubated at 37° C. for 30 minutes. The cells were washed twice with the same culture medium, and suspended in the same medium so that the cell count became 1×10^6 cells/ml.
Using these cells, cell migration test was carried out using 2 chambers for migration test (Transwell; 3 μm pore, 24 well, 3422 [Costar]). […]
as §1

A further test concerns TG1019 protein. The test can be described thus: Forskolin-stimulated cAMP production in CHO cells transiently expressing TG1019. Format: cell-based, human. From the text: A TG1019 protein expression vector was transiently introduced to CHO cells to have a recombinant TG1019 protein expressed, and using these cells, a function of TG1019 protein as an eicosanoid receptor was confirmed.
At first, a DNA encoding an entire region of TG1019 protein obtained in Example 1 (1) mentioned above was subcloned in NotI recognition site of a vector plasmid pcDNA3.1 (an expression vector, available from Invitrogen), to obtain TG1019 protein expression vector plasmid pcDNA3.1-TG1019.
CHO cells (1×10^6 cells) were cultured in DMEM/F-12 culture medium supplemented with 10% fetal bovine serum at 37° C. for 20 hours. Using these cells, transfection was carried out by adding plasmid DNA (pcDNA3.1-TG1019, or as a control, vector pcDNA3.1) (5 μg) and transfection reagent (LipofectAMINE, available from Invitrogen), and the mixture was cultured for 24 hours. In case of using pretreatment with pertussis toxin, pertussis toxin (100 ng) was added after 20 hours of culture and the mixture was successively cultured for 4 hours.
The cells after culture were collected, washed, and suspended in a KRH buffer (Krebs-Ringer Hepes buffer, pH 7.4) containing rolipram (25 mM). The suspension was incubated at 37° C. for 30 minutes and inoculated in a 96 well plate (5-7.5×10^4 cells/90 μl/well).
Subsequently, KRH buffer (90 μl/well) containing forskolin (1 μM) and 5-oxo-ETE (the final concentration 0M or 10^−11 to 10^−5 M) was added thereto, and after the mixture was incubated at room temperature for 10 minutes, the cells were lysed to measure a cAMP production amount.
The cAMP production amount was measured using cAMP enzyme immunoassay system available from Amersham Biosciences.

In test [1] the test system is TG1019 (5-oxo-ETE receptor). Description: Migration test using CHO cells stably expressing TG1019. Type of test: cell-based, human. The note with it: 5 hours. The protocol: The cells stably expressing TG1019 and the cells not expressing the same obtained in the above section (1) were cultured in a medium (DMEM/F12 medium supplemented with 10% fetal bovine serum [GibcoBRL]), containing 800 μg/ml of hygromycin B. The cells which were 80 to 90% confluent were dissociated by a cell dissociation buffer, and the cells were washed twice by centrifugation (600×g, 5 minutes, 4° C.) with 10 ml of RPMI1640 culture medium supplemented with 0.1% BSA Then, the cells were prepared to a concentration of 1×10^6 cells/ml in the same medium.
Cell migration test was carried out using 2 chambers for migration test (Transwell; 8 μm pore, 24 well, 3422 [Costar]). Chambers were set in a plate, and a solution (600 μl) containing 5-oxo-ETE was added to the lower chamber, and the cell solution (100 μl) was added to the upper chamber, to start the reaction. Migration was carried out at 37° C. for 5 hours in a CO2 incubator.
The chambers were removed, and […] of the solution in the lower chamber was transferred to a tube, and centrifuged at 600×g, 3 minutes, 4° C. 300 μl of the supernatant was removed, and RPMI1640 culture medium supplemented with 0.1% BSA (not containing phenol red) was added, if needed, to adjust a volume of the cell solution to 300 μl. The number of the cells migrated to the lower chamber were counted by flow cytometer.

`CCCCC/C=C\C/C=C\C/C=C\C=C\C(=O)CCCC(=O)O` [5-oxo-ETE, 5-oxo-6E,8Z,11Z,14Z-eicosatetraenoic acid]: in the test with neutrophils, the migration of neutrophils result is on record as “has an ability to make these cells migrate”. Further, in the test on eosinophils, the migration of eosinophils result was “has an ability to make these cells migrate”. The “cAMP production amount upon forskolin stimulation” value with TG1019 protein (CHO cells with pcDNA3.1-TG1019 introduced, forskolin 1 μM, concentration-dependent) is “inhibited”; with TG1019 protein (control CHO cells with only vector introduced) it was “not changed”. Moreover, the cAMP production entry in the test with TG1019 protein (TG1019-expressing CHO cells pretreated with pertussis toxin) is listed as “not inhibited”. Moreover, the cell migration result is listed as “did not” in test [1] (cells not expressing TG1019) and “showed 5-oxo-ETE-induced migration” in test [1] (cells stably expressing TG1019).
